Test results as given in US20160355530A1, “HEPATITIS C INHIBITORS AND USES THEREOF” (AbbVie Inc., priority 2010, published 2016).
Like-named read-outs stand apart in the source and are kept apart here.

Legend:
[1] = target: T1, HCV NS5B polymerase 1a-H77 (Hepatitis C virus genotype 1a, UniProt P27958); test: biochemical; parameters: species or system HCV genotype 1a; details: enzyme, strain 1a H77; read-out: HCV Polymerase Strain 1a H77 IC50
T1 construct: six-histidine tag; made in house; host or cells: E. coli
Procedure: (§1) Purified HCV NS5B polymerase enzymes were used for polymerase inhibition assays. All recombinant HCV polymerases contained the first 570 amino acids of the 591 amino acid native protein sequence and a six-histidine tag at the N-terminus or C-terminus to facilitate purification by affinity chromatography. The DNA nucleotide sequence for the HCV polymerase 1b BK strain was codon optimized for expression in E. coli. A synthetic gene was prepared from a series of overlapping oligonucleotides that were filled in using a DNA polymerase and amplified by PCR. The patient isolate HCV polymerases were cloned by RT-PCR methods using HCV RNA extracted from the serum of infected subjects obtained from ProMedDx and BioCollections (genotypes 2a, 2b, 3a, and 4a). Laboratory strains were cloned from plasmid DNA (1a-H77 or 1a-H77-C316Y) or from existing replicon cells (1b Rice). In all cases the amplified DNA was cloned into a protein expression vector (typically a pET vector from Novagen) and then multiple clones were sequenced to identify one whose NS5B sequence agreed with the population sequence. This sequence-confirmed clone was then transfected into E. coli for protein expression and purification. E. coli cultures were grown to a maximum optical density (OD) of 2-3 and then induced with 0.4 mM isopropyl beta-D-thiogalactopyranoside (IPTG) and grown for 20 hours at 20° C.
(§2) Proteins were purified using nickel affinity chromatography, and additional column steps were added including, ion exchange, size exclusion, hydrophobic ion, and poly-U affinity chromatography, as needed, depending on the sample being purified. The template RNA used in the polymerase enzymatic assay was a 2.1 kb construct that corresponds to the 3′-end of an HCV genotype 1b negative strand RNA.
(§3) The reaction was initiated by the addition of 20 μM CTP, 20 μM ATP, 0.284 μM (0.5 μCi) of 5,6-[^3H] UTP, 5 nM template RNA and 0.1 U/μL RNase inhibitor (RNasin, Promega), and allowed to proceed for three hours at 30° C. The final reaction volume was 50 μL. The reaction was terminated by the addition of 50 uL of 4 mM spermine in 10 mM Tris-HCl, pH 7.5, 1 mM EDTA. The quenched reaction was allowed to incubate for at least 15 minutes at room temperature, and then the precipitated RNA was captured by filtration through a glass fiber filter (GF/B, Millipore) in a 96 well format. The filter plate was washed five times with 200 μL of 2 mM spermine, 10 mM Tris-HCl, pH 8.0, 1 mM EDTA, and two times with ethanol. After drying thoroughly in air, 30 μL of Microscint-20 scintillation cocktail (Perkin Elmer) was added to each well, and the retained cpm were determined by scintillation counting. IC50 values were determined by nonlinear regression.
(§4) % Inhibition=100*[[I]/([I]+[IC50])] equation 1
(§5) V=kcat[S]/2(Km+[S])*(sqrt((IC50+I−E)̂2+(4*IC50*E))−(IC50+I−E)) equation 2

[2] = target: T2, HCV NS5B polymerase 1a-H77-C316Y (Hepatitis C virus genotype 1a, UniProt P27958, C2736Y); test: biochemical; parameters: species or system HCV genotype 1a
T2 construct: six-histidine tag; made in house; host or cells: E. coli
Procedure: as §1, §2, §3, §4, §5

[3] = tested on: HCV NS5B polymerase 1a-H77-C316Y; test: biochemical; parameters: species or system HCV genotype 1a; details: ratio of enzyme IC50s, 1a H77-C316Y / 1a H77
Procedure: as §1, §2, §3, §4, §5

[4] = target: T3, HCV NS5B polymerase 1b BK strain (Hepatitis C virus genotype 1b, UniProt P26663); test: HCV NS5B polymerase enzymatic inhibition assay, strain 1b BK; format: biochemical; details: enzyme, strain 1b BK; read-out: HCV Polymerase Strain 1b BK IC50
T3 construct: six-histidine tag; made in house; host or cells: E. coli
Procedure: as §1, §2, §3, §4, §5

[5] = tested on: HCV 1a-H77 subgenomic replicon; test: microbe, parasite or virus in culture; format: cell-based, HCV genotype 1a; details: Hepatitis C virus, stable replicon
[6] = tested on: HCV 1b-BB7 subgenomic replicon; test: microbe, parasite or virus in culture; format: cell-based, HCV genotype 1b; details: Hepatitis C virus, stable replicon
[7] = 5% FBS, absence of human plasma, read-out: Stable Replicon 1a H77 5% FBS EC50
[8] = strain 1a H77, 5% FBS + 40% human plasma, read-out: 1a H77 5% FBS + 40% Human Plasma EC50
[9] = strain 1a H77, 5% FBS, no human plasma, read-out: 1a H77 5% FBS EC50
[10] = strain 1a H77, 5% FBS, read-out: 1a H77 5% FBS EC50
[11] = strain 1b BB7, 5% FBS + 40% human plasma, read-out: 1b BB7 5% FBS + 40% Human Plasma EC50
[12] = strain 1b BB7, 5% FBS, no human plasma, read-out: 1b BB7 5% FBS EC50
[13] = strain 1b BB7, 5% FBS, read-out: 1b BB7 5% FBS EC50

T3 sequence (P26663 2420-2989): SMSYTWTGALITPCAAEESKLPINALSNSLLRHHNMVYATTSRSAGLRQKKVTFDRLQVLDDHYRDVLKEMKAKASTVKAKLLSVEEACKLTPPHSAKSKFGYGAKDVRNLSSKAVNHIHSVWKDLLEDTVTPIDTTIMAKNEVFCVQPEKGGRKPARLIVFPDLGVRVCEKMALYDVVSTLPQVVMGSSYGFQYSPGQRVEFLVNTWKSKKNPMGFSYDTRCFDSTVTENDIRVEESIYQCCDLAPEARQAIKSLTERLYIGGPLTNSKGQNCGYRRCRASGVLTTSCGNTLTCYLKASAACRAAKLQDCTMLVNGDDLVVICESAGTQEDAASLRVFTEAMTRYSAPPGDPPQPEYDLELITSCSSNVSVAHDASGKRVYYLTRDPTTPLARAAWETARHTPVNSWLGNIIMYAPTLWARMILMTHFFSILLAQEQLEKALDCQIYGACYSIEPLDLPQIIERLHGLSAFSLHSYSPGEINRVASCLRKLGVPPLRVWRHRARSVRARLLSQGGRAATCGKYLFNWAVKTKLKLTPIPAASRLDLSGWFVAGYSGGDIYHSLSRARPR
T2 sequence (P27958 2421-2990 C2736Y): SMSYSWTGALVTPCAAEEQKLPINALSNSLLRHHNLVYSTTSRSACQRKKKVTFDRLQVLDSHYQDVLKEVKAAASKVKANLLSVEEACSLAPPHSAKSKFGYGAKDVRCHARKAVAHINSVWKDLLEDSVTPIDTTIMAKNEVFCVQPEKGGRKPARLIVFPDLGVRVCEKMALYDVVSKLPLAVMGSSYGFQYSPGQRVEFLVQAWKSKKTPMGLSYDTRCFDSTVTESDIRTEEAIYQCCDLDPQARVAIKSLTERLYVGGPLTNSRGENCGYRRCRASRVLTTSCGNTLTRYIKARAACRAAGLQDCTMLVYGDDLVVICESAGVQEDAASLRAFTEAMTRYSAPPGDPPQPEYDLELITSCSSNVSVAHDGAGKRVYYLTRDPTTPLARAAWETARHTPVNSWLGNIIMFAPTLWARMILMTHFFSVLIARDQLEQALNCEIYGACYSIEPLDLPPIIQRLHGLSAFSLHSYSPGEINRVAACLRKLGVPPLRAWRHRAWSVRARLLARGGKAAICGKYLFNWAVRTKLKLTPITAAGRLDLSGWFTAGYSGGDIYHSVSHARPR
T1 sequence (P27958 2421-2990): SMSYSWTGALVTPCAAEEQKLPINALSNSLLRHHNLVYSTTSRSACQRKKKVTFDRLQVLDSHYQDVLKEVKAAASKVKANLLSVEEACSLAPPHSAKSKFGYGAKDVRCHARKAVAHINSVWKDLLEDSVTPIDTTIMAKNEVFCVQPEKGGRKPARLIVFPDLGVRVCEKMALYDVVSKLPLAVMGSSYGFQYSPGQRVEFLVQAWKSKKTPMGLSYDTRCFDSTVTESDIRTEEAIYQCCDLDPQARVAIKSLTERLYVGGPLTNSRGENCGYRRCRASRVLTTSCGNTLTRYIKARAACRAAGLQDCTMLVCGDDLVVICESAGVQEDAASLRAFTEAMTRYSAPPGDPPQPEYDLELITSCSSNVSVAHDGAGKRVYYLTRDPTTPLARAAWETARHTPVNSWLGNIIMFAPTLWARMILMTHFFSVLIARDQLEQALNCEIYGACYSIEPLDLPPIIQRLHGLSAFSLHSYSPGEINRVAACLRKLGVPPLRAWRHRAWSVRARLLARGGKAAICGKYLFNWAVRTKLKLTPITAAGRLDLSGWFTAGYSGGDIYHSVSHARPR

SMILES | IC50 [1] | IC50 [2] | C316Y/1a Fold Resistance [3] | IC50 [4] | EC50 [5, 7] | EC50 [5, 8] | EC50 [5, 9] | EC50 [5, 10] | EC50 [6, 11] | EC50 [6, 12] | EC50 [6, 13]
CCOC(=O)CN(c1cc2oc(-c3ccc(F)cc3)c(-c3ncc[nH]3)c2cc1C1CC1)S(C)(=O)=O [Example 33, ethyl N-[5-cyclopropyl-2-(4-fluorophenyl)-3-(1H-imidazol-2-yl)-1-benzofuran-6-yl]-N-(methylsulfonyl)glycinate] | 10.5 nM | 1900 nM | 181 fold | 152 nM | 163 nM | 8840 nM | 163 nM | 163 nM | 4810 nM | 200 nM | 200 nM
CS(=O)(=O)N(CC1CCCC1)c1cc2oc(-c3ccc(F)cc3)c(-c3ncc[nH]3)c2cc1C1CC1 [Example 34, N-(cyclopentylmethyl)-N-[5-cyclopropyl-2-(4-fluorophenyl)-3-(1H-imidazol-2-yl)-1-benzofuran-6-yl]methanesulfonamide] | 5 nM | 149 nM | 30 fold | 22 nM | 70 nM | 1290 nM | 70 nM | 70 nM | 854 nM | 65 nM | 65 nM
CS(=O)(=O)N(CCc1ccccc1)c1cc2oc(-c3ccc(F)cc3)c(-c3ncc[nH]3)c2cc1C1CC1 [Example 35, N-[5-cyclopropyl-2-(4-fluorophenyl)-3-(1H-imidazol-2-yl)-1-benzofuran-6-yl]-N-(2-phenylethyl)methanesulfonamide] | 4.9 nM | 113 nM | 23 fold | 7 nM | 102 nM | 1580 nM | 102 nM | 102 nM | 1130 nM | 51 nM | 51 nM
CS(=O)(=O)N(CC(N)=O)c1cc2oc(-c3ccc(F)cc3)c(-c3ncc[nH]3)c2cc1C1CC1 [Example 36, N^2-[5-cyclopropyl-2-(4-fluorophenyl)-3-(1H-imidazol-2-yl)-1-benzofuran-6-yl]-N^2-(methylsulfonyl)glycinamide] | 7.9 nM | 3400 nM | 428 fold | 188 nM | 301 nM | 2140 nM | 301 nM | 301 nM | 1120 nM | 180 nM | 180 nM
CC(C)CCCN(c1cc2oc(-c3ccc(F)cc3)c(-c3ncc[nH]3)c2cc1C1CC1)S(C)(=O)=O [Example 40, N-[5-cyclopropyl-2-(4-fluorophenyl)-3-(1H-imidazol-2-yl)-1-benzofuran-6-yl]-N-(4-methylpentyl)methanesulfonamide] | 6.5 nM | 70 nM | 11 fold | 19 nM | 23 nM | 525 nM | 23 nM | 23 nM | 445 nM | 23 nM | 23 nM
CS(=O)(=O)N(CCCc1ccccc1)c1cc2oc(-c3ccc(F)cc3)c(-c3ncc[nH]3)c2cc1C1CC1 [Example 41, N-[5-cyclopropyl-2-(4-fluorophenyl)-3-(1H-imidazol-2-yl)-1-benzofuran-6-yl]-N-(3-phenylpropyl)methanesulfonamide] | 5 nM | 58 nM | 12 fold | 16 nM | 73 nM | 911 nM | 73 nM | 73 nM | 364 nM | 40 nM | 40 nM
CS(=O)(=O)N(CCOc1ccccc1)c1cc2oc(-c3ccc(F)cc3)c(-c3ncc[nH]3)c2cc1C1CC1 [Example 43, N-[5-cyclopropyl-2-(4-fluorophenyl)-3-(1H-imidazol-2-yl)-1-benzofuran-6-yl]-N-(2-phenoxyethyl)methanesulfonamide] | 6.5 nM | 1000 nM | 154 fold | 25 nM | 269 nM | 5210 nM | 269 nM | 269 nM | 616 nM | 80 nM | 80 nM
